Results from US20050054696A1, “Indole compounds and medicinal use thereof” (priority 2001, published 2005).
pIC50: −log10 of the molar value.

Target: T1, recombinant human liver glycogen phosphorylase (HLGPa) (Homo sapiens, UniProt P06737)
T1 construct: made in house; host or cells: Sf9 insect cells (unpurified cell lysate used as enzyme solution)
T1 sequence (P06737 1-847): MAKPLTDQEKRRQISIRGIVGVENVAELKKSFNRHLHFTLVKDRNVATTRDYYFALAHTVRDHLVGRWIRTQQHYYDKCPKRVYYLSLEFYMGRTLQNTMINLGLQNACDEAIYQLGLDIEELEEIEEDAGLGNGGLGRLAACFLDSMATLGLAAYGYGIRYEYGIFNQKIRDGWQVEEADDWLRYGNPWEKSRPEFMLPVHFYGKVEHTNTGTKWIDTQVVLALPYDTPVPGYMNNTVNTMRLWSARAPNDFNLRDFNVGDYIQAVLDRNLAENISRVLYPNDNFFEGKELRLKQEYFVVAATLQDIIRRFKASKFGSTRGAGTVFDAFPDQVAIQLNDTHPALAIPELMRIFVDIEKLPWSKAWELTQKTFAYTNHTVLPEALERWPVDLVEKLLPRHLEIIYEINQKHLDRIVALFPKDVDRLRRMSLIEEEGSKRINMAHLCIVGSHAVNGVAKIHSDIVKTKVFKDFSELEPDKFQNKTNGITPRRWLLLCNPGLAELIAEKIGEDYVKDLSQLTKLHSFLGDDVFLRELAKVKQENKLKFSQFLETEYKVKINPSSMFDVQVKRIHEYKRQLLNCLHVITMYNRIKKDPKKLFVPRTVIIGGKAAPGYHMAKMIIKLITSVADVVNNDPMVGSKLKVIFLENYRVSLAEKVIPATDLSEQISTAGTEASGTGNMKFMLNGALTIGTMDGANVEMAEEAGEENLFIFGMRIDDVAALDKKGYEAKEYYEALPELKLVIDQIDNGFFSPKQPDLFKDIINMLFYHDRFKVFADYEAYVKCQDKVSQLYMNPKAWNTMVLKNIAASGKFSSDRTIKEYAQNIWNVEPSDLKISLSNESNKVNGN
Test: Measurement of liver glycogen phosphorylase activity (enzyme inhibitory activity against HLGPa)
Type: biochemical
Settings: Sf9 cell lysate expressing recombinant enzyme; reverse reaction (glycogen synthesis from G1-P), phosphate by malachite green, 60 min room temperature
How it was run: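 Activity was run in the reverse, glycogen-synthesis direction, using Sf9 lysate expressing recombinant human liver glycogen phosphorylase (enzyme solution 80 μg/mL protein, pH 7.0). Substrate solution was Tris pH 7.2 with 1.25 mM glucose-1-phosphate, 2.5 mg/ml glycogen and 7.5 mM glucose, reacted 60 min at room temperature. Released phosphate was measured by malachite green A650, with % inhibition taken against DMSO control and no-enzyme blank.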

pIC50	SMILES
7.11	O=C(NN1C(=O)CCN(c2ccccc2)C1=O)c1cc2cc(Cl)ccc2[nH]1 [Example 3-3, N-(2,4-dioxo-1-phenyl-perhydropyrimidin-3-yl)-5-chloro-1H-indole-2-carboxamide]
6.72	O=C(NN1C(=O)CCN(c2ccc(F)cc2)C1=O)c1cc2cc(Cl)ccc2[nH]1 [Example 3-5, 5-chloro-1H-indole-2-carboxylic acid (1-(4-fluorophenyl)-2,4-dioxoperhydropyrimidin-3-yl)amide]
6.72	O=C(NN1C(=O)CCN(c2ccccn2)C1=O)c1cc2cc(Cl)ccc2[nH]1 [Example 3-6, 5-chloro-1H-indole-2-carboxylic acid (2,4-dioxo-1-(pyridin-2-yl)perhydropyrimidin-3-yl)amide]
7.30	O=C(NN1C(=O)CCN(c2cccc(F)c2)C1=O)c1cc2cc(Cl)ccc2[nH]1 [Example 3-7, 5-chloro-1H-indole-2-carboxylic acid (1-(3-fluorophenyl)-2,4-dioxoperhydropyrimidin-3-yl)amide]
6.14	O=C(NN1C(=O)CCN(c2ccccc2)C1=O)c1cc2cc(F)ccc2[nH]1 [Example 3-9, 5-fluoro-1H-indole-2-carboxylic acid (2,4-dioxo-1-phenyl-perhydropyrimidin-3-yl)amide]
6.36	Cc1ccc2[nH]c(C(=O)NN3C(=O)CCN(c4ccccc4)C3=O)cc2c1 [Example 3-10, 5-methyl-1H-indole-2-carboxylic acid (2,4-dioxo-1-phenyl-perhydropyrimidin-3-yl)amide]
6.28	O=C(NN1C(=O)CCN(c2cccc(Cl)c2)C1=O)c1cc2cc(Cl)ccc2[nH]1 [Example 3-11, 5-chloro-1H-indole-2-carboxylic acid (1-(3-chlorophenyl)-2,4-dioxoperhydropyrimidin-3-yl)amide]
6.17	Cc1cccc(N2CCC(=O)N(NC(=O)c3cc4cc(Cl)ccc4[nH]3)C2=O)c1 [Example 3-12, 5-chloro-1H-indole-2-carboxylic acid (2,4-dioxo-1-(m-tolyl)perhydropyrimidin-3-yl)amide]
6.36	Cc1ccc(N2CCC(=O)N(NC(=O)c3cc4cc(Cl)ccc4[nH]3)C2=O)cc1 [Example 3-13, 5-chloro-1H-indole-2-carboxylic acid (2,4-dioxo-1-(p-tolyl)perhydropyrimidin-3-yl)amide]
6.92	O=C(NN1C(=O)CCN(c2ccc(Cl)cc2)C1=O)c1cc2cc(Cl)ccc2[nH]1 [Example 3-14, 5-chloro-1H-indole-2-carboxylic acid (1-(4-chlorophenyl)-2,4-dioxoperhydropyrimidin-3-yl)amide]

Further lines, the compound ahead of its results:

SMILES	pIC50
N=C(NNC(=O)c1cc2cc(Cl)ccc2[nH]1)c1ccccc1C(F)(F)F [Example 1-139, 5-chloro-1H-indole-2-carboxylic acid 2-(imino-(2-trifluoromethylphenyl)-methyl)hydrazide]	6.42
N=C(NNC(=O)c1cc2cc(Cl)ccc2[nH]1)c1cnccn1 [Example 1-140, 5-chloro-1H-indole-2-carboxylic acid 2-(imino-(pyrazin-2-yl)-methyl)hydrazide]	6.74
Cc1nc(C(=O)NNC(=O)c2cc3cc(Cl)ccc3[nH]2)c(N)s1 [Example 1-143, 5-amino-2-methylthiazole-4-carboxylic acid 2-(5-chloro-1H-indole-2-carbonyl)hydrazide]	6.92
O=C(Nn1c(=O)[nH]c2ccccc2c1=O)c1cc2cc(Cl)ccc2[nH]1 [Example 2, N-(1,2,3,4-tetrahydro-2,4-dioxoquinazolin-3-yl)-5-chloro-1H-indole-2-carboxamide]	7.80
O=C(Nn1c(=O)oc2ccccc2c1=O)c1cc2cc(Cl)ccc2[nH]1 [Example 2-2, N-(1,2,3,4-tetrahydro-2,4-dioxobenzo[e][1,3]oxazin-3-yl)-5-chloro-1H-indole-2-carboxamide]	7.15
CC(C)c1ccc2[nH]c(C(=O)Nn3c(=O)[nH]c4ccccc4c3=O)cc2c1 [Example 2-9, 5-isopropyl-1H-indole-2-carboxylic acid (1,2,3,4-tetrahydro-2,4-dioxoquinazolin-3-yl)amide]	< 7.00
CC(C)c1ccc2[nH]c(C(=O)Nn3c(=O)[nH]c4cc(F)ccc4c3=O)cc2c1 [Example 2-10, 5-isopropyl-1H-indole-2-carboxylic acid (7-fluoro-1,2,3,4-tetrahydro-2,4-dioxoquinazolin-3-yl)amide]	< 7.00
O=C(Nn1c(=O)[nH]c2ccccc2c1=O)c1cc2cc(F)ccc2[nH]1 [Example 2-11, 5-fluoro-1H-indole-2-carboxylic acid (1,2,3,4-tetrahydro-2,4-dioxoquinazolin-3-yl)amide]	< 7.00
O=C(Nn1c(=O)[nH]c2ccccc2c1=O)c1cc2ccc(Cl)cc2[nH]1 [Example 2-12, 6-chloro-1H-indole-2-carboxylic acid (1,2,3,4-tetrahydro-2,4-dioxoquinazolin-3-yl)amide]	6.36
Nc1ccc2[nH]c(=O)n(NC(=O)c3cc4cc(Cl)ccc4[nH]3)c(=O)c2c1 [Example 2-16, 5-chloro-1H-indole-2-carboxylic acid (6-amino-1,2,3,4-tetrahydro-2,4-dioxoquinazolin-3-yl)amide]	6.96
O=C(Nn1c(=O)[nH]c2ccc(Cl)cc2c1=O)c1cc2cc(Cl)ccc2[nH]1 [Example 2-18, 5-chloro-1H-indole-2-carboxylic acid (6-chloro-1,2,3,4-tetrahydro-2,4-dioxoquinazolin-3-yl)amide]	7.40
O=C(Nn1c(=O)[nH]c2cc(Cl)ccc2c1=O)c1cc2cc(Cl)ccc2[nH]1 [Example 2-19, 5-chloro-1H-indole-2-carboxylic acid (7-chloro-1,2,3,4-tetrahydro-2,4-dioxoquinazolin-3-yl)amide]	7.04
O=C(Nn1c(=O)[nH]c2c(Cl)cccc2c1=O)c1cc2cc(Cl)ccc2[nH]1 [Example 2-20, 5-chloro-1H-indole-2-carboxylic acid (8-chloro-1,2,3,4-tetrahydro-2,4-dioxoquinazolin-3-yl)amide]	7.66
O=C(O)Cn1c(=O)n(NC(=O)c2cc3cc(Cl)ccc3[nH]2)c(=O)c2ccccc21 [Example 2-21, 2-(3-((5-chloro-1H-indole-2-carbonyl)amino)-1,2,3,4-tetrahydro-2,4-dioxoquinazolin-1-yl)acetic acid]	< 7.00
COC(=O)Cn1c(=O)n(NC(=O)c2cc3cc(Cl)ccc3[nH]2)c(=O)c2ccccc21 [Example 2-22, 2-(3-((5-chloro-1H-indole-2-carbonyl)amino)-1,2,3,4-tetrahydro-2,4-dioxoquinazolin-1-yl)acetic acid methyl ester]	7.51
CCc1ccc2[nH]c(C(=O)Nn3c(=O)[nH]c4ccccc4c3=O)cc2c1 [Example 2-25, 5-ethyl-1H-indole-2-carboxylic acid (1,2,3,4-tetrahydro-2,4-dioxoquinazolin-3-yl)amide]	< 7.00
Cc1ccc2[nH]c(C(=O)Nn3c(=O)[nH]c4cc(F)c(F)cc4c3=O)cc2c1 [Example 2-26, 5-methyl-1H-indole-2-carboxylic acid (6,7-difluoro-1,2,3,4-tetrahydro-2,4-dioxoquinazolin-3-yl)amide]	6.68
COc1ccc2[nH]c(=O)n(NC(=O)c3cc4cc(C)ccc4[nH]3)c(=O)c2c1 [Example 2-27, 5-methyl-1H-indole-2-carboxylic acid (1,2,3,4-tetrahydro-6-methoxy-2,4-dioxoquinazolin-3-yl)amide]	6.52
Cc1ccc2[nH]c(C(=O)Nn3c(=O)[nH]c4ccc(O)cc4c3=O)cc2c1 [Example 2-28, 5-methyl-1H-indole-2-carboxylic acid (1,2,3,4-tetrahydro-6-hydroxy-2,4-dioxoquinazolin-3-yl)amide]	7.25
CC(=O)Oc1ccc2[nH]c(=O)n(NC(=O)c3cc4cc(C)ccc4[nH]3)c(=O)c2c1 [Example 2-29, acetic acid 3-((5-methyl-1H-indole-2-carbonyl)amino)-1,2,3,4-tetrahydro-2,4-dioxoquinazolin-6-yl ester]	6.57
CCCn1c(=O)n(NC(=O)c2cc3cc(Cl)ccc3[nH]2)c(=O)c2ccccc21 [Example 2-30, 5-chloro-1H-indole-2-carboxylic acid (1,2,3,4-tetrahydro-2,4-dioxo-1-propylquinazolin-3-yl)amide]	7.06
Cn1c(=O)n(NC(=O)c2cc3cc(Cl)ccc3[nH]2)c(=O)c2ccccc21 [Example 2-31, 5-chloro-1H-indole-2-carboxylic acid (1,2,3,4-tetrahydro-1-methyl-2,4-dioxoquinazolin-3-yl)amide]	7.59
